From patent publication US10954269B2, “Anti-inflammatory tripeptides” (Dr. August Wolff Gmbh & Co. KG Arzneimittel, priority 2013, dated 2021)

Key:
Conditions in all cases: substance 10^−9M
primary murine T-cells = experiment: Cytokine secretion on protein level in activated primary murine T-cells (13-plex FACS / Luminex, supernatant); type: cell-based, C57BL/6 mice
How it was run: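 T-cells from secondary lymphatic organs of naïve C57BL/6 mice, stimulated with PMA/Ionomycin or IFN-γ; supernatant cytokines measured by 13-plex FACS 48 h and 72 h after stimulation. In another run, PMA/Ionomycin-stimulated cells received compounds at 10^−7, 10^−9 and 10^−11 M, with IFN-γ, IL-17 and IL-10 measured by Luminex.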

primary human T-cells = experiment: Cytokine secretion on protein level in activated primary human T-cells (13-plex FACS / Luminex, supernatant); type: cell-based
How it was run: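 Primary T-cells from peripheral blood of healthy volunteers, or HaCaT cells, were activated with PMA/Ionomycin or IFN-γ for 48 h and treated with tripeptides. Supernatants were collected 48 h and 72 h after stimulation and cytokines (IL-1, IL-2, IL-6, IL-12p70, IL-17, IFN-γ, TNF-α) were measured by 13-plex FACS.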

[1] = test system: human keratinocyte cell line (HaCaT); experiment: Cytokine secretion on protein level in activated human keratinocyte cell line HaCaT (13-plex FACS / Luminex, supernatant); type: cell-based
How it was run: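 First, T-cells are isolated from healthy donors' blood. Next, they and HaCaT keratinocytes are activated for 48 h with PMA/Ionomycin or IFN-γ in the presence of tripeptides. Finally, secreted cytokines are quantified in supernatants by 13-plex FACS at 48 and 72 h.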

[2] = primary murine T-cells stimulated with IFN-γ
[3] = primary murine T-cells stimulated with PBS
[4] = primary murine T-cells stimulated with PMA/Ionomycin
[5] = primary human T-cells stimulated with IFN-γ
[6] = primary human T-cells stimulated with PBS
[7] = primary human T-cells stimulated with PMA/Ionomycin
[8] = HaCaT stimulated with PMA/Ionomycin

With H-(L)-Om-(L)-Pro-Aib-OH [Example 11] the IL-1 cytokine concentration (primary murine T-cells; [2]) was 100.08 pg/mL, the IL-2 cytokine concentration (primary murine T-cells; [2]) was 208.9 pg/mL and the IL-4 cytokine concentration (primary murine T-cells; [2]) was 53.65 pg/mL. For the same substance, the IL-5 cytokine concentration (primary murine T-cells; [2]) was 531.87 pg/mL, the IL-6 cytokine concentration (primary murine T-cells; [2]) was 193.06 pg/mL and the IL-10 cytokine concentration (primary murine T-cells; [2]) was 1383.43 pg/mL. The IL-13 cytokine concentration (primary murine T-cells; [2]) was 0 pg/mL, the IL-17 cytokine concentration (primary murine T-cells; [2]) was 39.84 pg/mL and the IL-21 cytokine concentration (primary murine T-cells; [2]) was 263.02 pg/mL. The IL-22 cytokine concentration (primary murine T-cells; [2]) was 31.59 pg/mL, the IL-27 cytokine concentration (primary murine T-cells; [2]) was 42.99 pg/mL and the TNF-α cytokine concentration (primary murine T-cells; [2]) was 19.71 pg/mL. The IFN-γ cytokine concentration (primary murine T-cells; [3]) was 8321.6 pg/mL, the IL-1 cytokine concentration (primary murine T-cells; [3]) was 75.71 pg/mL and the IL-2 cytokine concentration (primary murine T-cells; [3]) was 204.62 pg/mL. For the same substance, the IL-4 cytokine concentration (primary murine T-cells; [3]) was 0 pg/mL, the IL-5 cytokine concentration (primary murine T-cells; [3]) was 459.03 pg/mL and the IL-6 cytokine concentration (primary murine T-cells; [3]) was 172.33 pg/mL. It also gave an IL-10 cytokine concentration (primary murine T-cells; [3]) of 905.76 pg/mL, an IL-13 cytokine concentration (primary murine T-cells; [3]) of 0 pg/mL and an IL-17 cytokine concentration (primary murine T-cells; [3]) of 0 pg/mL. The IL-21 cytokine concentration (primary murine T-cells; [3]) was 0 pg/mL, the IL-22 cytokine concentration (primary murine T-cells; [3]) was 66.43 pg/mL and the IL-27 cytokine concentration (primary murine T-cells; [3]) was 141.82 pg/mL. The TNF-α cytokine concentration (primary murine T-cells; [3]) was 0 pg/mL, the IFN-γ cytokine concentration (primary murine T-cells; [4]) was 2756.75 pg/mL and the IL-1 cytokine concentration (primary murine T-cells; [4]) was 178.78 pg/mL. For the same substance, the IL-2 cytokine concentration (primary murine T-cells; [4]) was 261.53 pg/mL, the IL-4 cytokine concentration (primary murine T-cells; [4]) was 117.11 pg/mL and the IL-5 cytokine concentration (primary murine T-cells; [4]) was 513.39 pg/mL. It also gave an IL-6 cytokine concentration (primary murine T-cells; [4]) of 333.86 pg/mL, an IL-10 cytokine concentration (primary murine T-cells; [4]) of 1302.16 pg/mL and an IL-13 cytokine concentration (primary murine T-cells; [4]) of 0 pg/mL. For the same substance, the IL-17 cytokine concentration (primary murine T-cells; [4]) was 244.88 pg/mL, the IL-21 cytokine concentration (primary murine T-cells; [4]) was 0 pg/mL and the IL-22 cytokine concentration (primary murine T-cells; [4]) was 94.31 pg/mL. For the same substance, the IL-27 cytokine concentration (primary murine T-cells; [4]) was 99.05 pg/mL, the TNF-α cytokine concentration (primary murine T-cells; [4]) was 86.61 pg/mL and the IL-1 cytokine concentration (primary human T-cells; [5]) was 0 pg/mL. The IL-2 cytokine concentration (primary human T-cells; [5]) was 212.98 pg/mL, the IL-4 cytokine concentration (primary human T-cells; [5]) was 0 pg/mL and the IL-5 cytokine concentration (primary human T-cells; [5]) was 83.3 pg/mL. The IL-6 cytokine concentration (primary human T-cells; [5]) was 108.08 pg/mL, the IL-9 cytokine concentration (primary human T-cells; [5]) was 8.15 pg/mL and the IL-10 cytokine concentration (primary human T-cells; [5]) was 50.11 pg/mL. The IL-12p70 cytokine concentration (primary human T-cells; [5]) was 0 pg/mL, the IL-13 cytokine concentration (primary human T-cells; [5]) was 180.41 pg/mL and the IL-17 cytokine concentration (primary human T-cells; [5]) was 0 pg/mL. For the same substance, the IL-22 cytokine concentration (primary human T-cells; [5]) was 0 pg/mL, the TNF-α cytokine concentration (primary human T-cells; [5]) was 52.55 pg/mL and the IL-1 cytokine concentration (primary human T-cells; [6]) was 0 pg/mL. It also gave an IL-2 cytokine concentration (primary human T-cells; [6]) of 0 pg/mL, an IL-4 cytokine concentration (primary human T-cells; [6]) of 121.69 pg/mL and an IL-5 cytokine concentration (primary human T-cells; [6]) of 0 pg/mL. It also gave an IL-6 cytokine concentration (primary human T-cells; [6]) of 172.14 pg/mL, an IL-9 cytokine concentration (primary human T-cells; [6]) of 10.84 pg/mL and an IL-10 cytokine concentration (primary human T-cells; [6]) of 0 pg/mL. For the same substance, the IL-12p70 cytokine concentration (primary human T-cells; [6]) was 0 pg/mL, the IL-13 cytokine concentration (primary human T-cells; [6]) was 187.86 pg/mL and the IL-17 cytokine concentration (primary human T-cells; [6]) was 0 pg/mL. The IL-22 cytokine concentration (primary human T-cells; [6]) was 0 pg/mL, the INF-α cytokine concentration (primary human T-cells; [6]) was 505.68 pg/mL and the TNF-α cytokine concentration (primary human T-cells; [6]) was 52.55 pg/mL. The IL-1 cytokine concentration (primary human T-cells; [7]) was 677.32 pg/mL, the IL-2 cytokine concentration (primary human T-cells; [7]) was 3920.52 pg/mL and the IL-4 cytokine concentration (primary human T-cells; [7]) was 112.94 pg/mL. For the same substance, the IL-5 cytokine concentration (primary human T-cells; [7]) was 525.15 pg/mL, the IL-6 cytokine concentration (primary human T-cells; [7]) was 1474.06 pg/mL and the IL-9 cytokine concentration (primary human T-cells; [7]) was 380.3 pg/mL. For the same substance, the IL-10 cytokine concentration (primary human T-cells; [7]) was 563.89 pg/mL, the IL-12p70 cytokine concentration (primary human T-cells; [7]) was 0 pg/mL and the IL-13 cytokine concentration (primary human T-cells; [7]) was 1258.74 pg/mL. For the same substance, the IL-17 cytokine concentration (primary human T-cells; [7]) was 3306.09 pg/mL, the IL-22 cytokine concentration (primary human T-cells; [7]) was 0 pg/mL and the INF-α cytokine concentration (primary human T-cells; [7]) was 9554.27 pg/mL. For the same substance, the TNF-α cytokine concentration (primary human T-cells; [7]) was 2209.22 pg/mL, the IL-1 cytokine concentration ([1]; HaCaT stimulated with IFN-γ) was 31.54 pg/mL and the IL-2 cytokine concentration ([1]; HaCaT stimulated with IFN-γ) was 0 pg/mL. It also gave an IL-4 cytokine concentration ([1]; HaCaT stimulated with IFN-γ) of 0 pg/mL, an IL-5 cytokine concentration ([1]; HaCaT stimulated with IFN-γ) of 0 pg/mL and an IL-6 cytokine concentration ([1]; HaCaT stimulated with IFN-γ) of 265.29 pg/mL. It also gave an IL-9 cytokine concentration ([1]; HaCaT stimulated with IFN-γ) of 0 pg/mL, an IL-10 cytokine concentration ([1]; HaCaT stimulated with IFN-γ) of 0 pg/mL and an IL-12p70 cytokine concentration ([1]; HaCaT stimulated with IFN-γ) of 0 pg/mL. It also gave an IL-13 cytokine concentration ([1]; HaCaT stimulated with IFN-γ) of 989.21 pg/mL, an IL-17 cytokine concentration ([1]; HaCaT stimulated with IFN-γ) of 0 pg/mL and an IL-22 cytokine concentration ([1]; HaCaT stimulated with IFN-γ) of 0 pg/mL. The TNF-α cytokine concentration ([1]; HaCaT stimulated with IFN-γ) was 0 pg/mL, the IFN-γ cytokine concentration ([1]; HaCaT stimulated with PBS) was 0 pg/mL and the IL-1 cytokine concentration ([1]; HaCaT stimulated with PBS) was 0 pg/mL. It also gave an IL-2 cytokine concentration ([1]; HaCaT stimulated with PBS) of 0 pg/mL, an IL-4 cytokine concentration ([1]; HaCaT stimulated with PBS) of 99.64 pg/mL and an IL-5 cytokine concentration ([1]; HaCaT stimulated with PBS) of 0 pg/mL. The IL-6 cytokine concentration ([1]; HaCaT stimulated with PBS) was 42.94 pg/mL, the IL-9 cytokine concentration ([1]; HaCaT stimulated with PBS) was 1.97 pg/mL and the IL-10 cytokine concentration ([1]; HaCaT stimulated with PBS) was 43.56 pg/mL. For the same substance, the IL-12p70 cytokine concentration ([1]; HaCaT stimulated with PBS) was 0 pg/mL, the IL-13 cytokine concentration ([1]; HaCaT stimulated with PBS) was 0 pg/mL and the IL-17 cytokine concentration ([1]; HaCaT stimulated with PBS) was 0 pg/mL. The IL-22 cytokine concentration ([1]; HaCaT stimulated with PBS) was 0 pg/mL, the TNF-α cytokine concentration ([1]; HaCaT stimulated with PBS) was 0 pg/mL and the IFN-γ cytokine concentration [1, 8] was 57.58 pg/mL. The IL-1 cytokine concentration [1, 8] was 0 pg/mL, the IL-2 cytokine concentration [1, 8] was 19.32 pg/mL and the IL-4 cytokine concentration [1, 8] was 0 pg/mL. The IL-5 cytokine concentration [1, 8] was 0 pg/mL, the IL-6 cytokine concentration [1, 8] was 207.76 pg/mL and the IL-9 cytokine concentration [1, 8] was 0 pg/mL. The IL-10 cytokine concentration [1, 8] was 87.41 pg/mL, the IL-12p70 cytokine concentration [1, 8] was 0 pg/mL and the IL-13 cytokine concentration [1, 8] was 0 pg/mL. The IL-17 cytokine concentration [1, 8] was 0 pg/mL, the IL-22 cytokine concentration [1, 8] was 0 pg/mL and the TNF-α cytokine concentration [1, 8] was 0 pg/mL.
